{"source": "patent US10183022B2", "about": "“Pharmaceutical composition for treating ulcerative colitis” (EA Pharma Co., Ltd., priority 2014, dated 2019)", "test_system": "ulcerative colitis patients in an active stage", "test": "Clinical study, 960 mg orally 3 times a day for 8 weeks: Mayo score, partial Mayo score, response rate, remission rate", "format": "in vivo, human", "design": "key to Mayo score, Mean / Mayo score, Minimum / Mayo score, Maximum / Mayo score, Upper quartile / Mayo score, Median / Mayo score, Lower quartile: Mayo score = total of 4 subscores (stool, bloody stool, mucosa, global); key to Mayo score, difference in mean between Example 1 and Comparative Example 1: Mayo score points (total of 4 subscores)", "description": "A tablet comprising 120 mg of the compound of the formula (1) was coated with a film. Thus, a film-coated tablet was prepared (compound of Example 1).\nThe compound of Example 1 or the compound of Comparative Example 1 was orally administered after meals 3 times a day. The number of the given tablets was 8 per administration (i.e., the amount of the compound (1) of Example 1 administered was 960 mg per administration). The administration period was 8 weeks. The compounds were administered until the timing after the breakfast on the day before the assessment day at Week 8.\nAs the subjects, 102 cases (Comparative Example 1: 51 cases, Example 1: 51 cases) were analyzed for assessment items to be described later.\nThe investigators or sub-investigators assessed subscores (“stool frequency,” “bloody stool,” “mucosal finding,” and “physician's global assessment”) of the Mayo score according to (1) to (4) below. A Mayo score was a total value of four subscore items of “stool frequency,” “bloody stool,” “mucosal finding,” and “physician's global assessment.” Meanwhile, a partial Mayo score was a total value of three subscore items of the Mayo score excluding “mucosal finding.” Note that, for the Mayo score and the partial Mayo score at Week 0, scores obtained at the time of the eligibility determination were used.\nA proportion of subjects satisfying the following conditions (a) and (b) (response rate): • (a) the Mayo score was reduced by 30% or more and by 3 points or more in comparison with that at Week 0; and • (b) the subscore for bloody stool was reduced by 1 point or more in comparison with that at Week 0 or was 1 point or less.\nRegarding the response rate (proportion of response cases) (Week 8), Example 1 was compared with Comparative Example 1 by setting a logistic regression model using the following adjusting factors as covariates to conduct a superiority test.\n• 1. either subjects on whom a 5-ASA preparation (including a SASP preparation) or a corticosteroid preparation has an insufficient effect or who are intolerant to a 5-ASA preparation (including a SASP preparation) or a corticosteroid preparation; and • 2. the Mayo scores (6 points or more but 7 points or less, 8 points or more but 10 points or less) on the eligibility verification day. (1) Main Analysis\nUsing the response rate at Week 8 as a primary endpoint, a main effect model was set as the main analysis.\nA remission rate is a proportion of subjects each having a Mayo score of 2 points or less with the individual subscores of 1 point or less.", "note": "“And” between values parts separate entries of the source, which are not always exact repeats. Identical values can stand only once."}
{"smiles": "COC(=O)[C@H](Cc1ccc(-n2c(=O)c3cc(N(C)C)ccc3n(C)c2=O)cc1)NC(=O)c1c(Cl)cccc1Cl", "note": "[Example 1, methyl(2S)-2-(2,6-dichlorobenzamide)-3-{4-[6-(dimethylamino)-1-methyl-2,4-dioxo-1,4-dihydroquinazolin-3(2H)-yl]phenyl}propanoate]", "values": [{"measurement": "Response rate in comparison with Comparative Example (placebo)", "setting": "960 mg orally 3 times a day for 8 weeks", "result": "significantly improved"}, {"measurement": "Response rate", "setting": "3 months or more but less than 6 months after remission induction therapy started (6/10 cases)", "result": 60.0, "unit": "%"}, {"measurement": "Response rate", "setting": "6 months or more after remission induction therapy started (5/11 cases)", "result": 45.5, "unit": "%"}, {"measurement": "Response rate", "setting": "Mayo score 6 points or more but 7 points or less (15/20 cases)", "result": 75.0, "unit": "%"}, {"measurement": "Response rate", "setting": "Mayo score 8 points or more but 10 points or less (17/31 cases)", "result": 54.8, "unit": "%"}, {"measurement": "Mayo score, Lower quartile", "setting": "Week 0", "result": 7.0}, {"measurement": "Mayo score, Maximum", "setting": "Week 0", "result": 10}, {"measurement": "Mayo score, Mean", "setting": "Week 0", "result": "7.8±1.2 and 7.8"}, {"measurement": "Mayo score, Median", "setting": "Week 0", "result": 8.0}, {"measurement": "Mayo score, Minimum", "setting": "Week 0", "result": 6}, {"measurement": "Mayo score, Upper quartile", "setting": "Week 0", "result": 9.0}, {"measurement": "Partial Mayo score, Lower quartile", "setting": "Week 0", "result": 5.0}, {"measurement": "Partial Mayo score, Maximum", "setting": "Week 0", "result": 8}, {"measurement": "Partial Mayo score, Mean", "setting": "Week 0", "result": "5.7±1.1 and 5.7"}, {"measurement": "Partial Mayo score, Median", "setting": "Week 0", "result": 6.0}, {"measurement": "Partial Mayo score, Minimum", "setting": "Week 0", "result": 4}, {"measurement": "Partial Mayo score, Upper quartile", "setting": "Week 0", "result": 6.0}, {"measurement": "Partial Mayo score, Lower quartile", "setting": "Week 2", "result": 3.0}, {"measurement": "Partial Mayo score, Maximum", "setting": "Week 2", "result": 8}, {"measurement": "Partial Mayo score, Mean", "setting": "Week 2", "result": "4.4±1.7 and 4.4"}, {"measurement": "Partial Mayo score, Median", "setting": "Week 2", "result": 5.0}, {"measurement": "Partial Mayo score, Minimum", "setting": "Week 2", "result": 0}, {"measurement": "Partial Mayo score, Upper quartile", "setting": "Week 2", "result": 6.0}, {"measurement": "Partial Mayo score, difference in mean between Example 1 and Comparative Example 1", "setting": "Week 2", "result": "−0.55"}, {"measurement": "Partial Mayo score, Lower quartile", "setting": "Week 4", "result": 2.0}, {"measurement": "Partial Mayo score, Maximum", "setting": "Week 4", "result": 8}, {"measurement": "Partial Mayo score, Mean", "setting": "Week 4", "result": "3.5±2.0 and 3.5"}, {"measurement": "Partial Mayo score, Median", "setting": "Week 4", "result": 3.0}, {"measurement": "Partial Mayo score, Minimum", "setting": "Week 4", "result": 0}, {"measurement": "Partial Mayo score, Upper quartile", "setting": "Week 4", "result": 5.0}, {"measurement": "Partial Mayo score, difference in mean between Example 1 and Comparative Example 1", "setting": "Week 4", "result": "−1.16"}, {"measurement": "Difference in remission rates, Example 1 vs Comparative Example 1 (placebo)", "setting": "Week 8", "result": 19.6, "unit": "%"}, {"measurement": "Difference in response rates, Example 1 vs Comparative Example 1 (placebo)", "setting": "Week 8", "result": 37.3, "unit": "%"}, {"measurement": "Mayo score, Lower quartile", "setting": "Week 8", "result": 2.0}, {"measurement": "Mayo score, Maximum", "setting": "Week 8", "result": 9}, {"measurement": "Mayo score, Mean", "setting": "Week 8", "result": "4.0±2.4 and 4.0"}, {"measurement": "Mayo score, Median", "setting": "Week 8", "result": 4.0}, {"measurement": "Mayo score, Minimum", "setting": "Week 8", "result": 0}, {"measurement": "Mayo score, Upper quartile", "setting": "Week 8", "result": 5.0}, {"measurement": "Mayo score, difference in mean between Example 1 and Comparative Example 1", "setting": "Week 8", "result": "−2.14"}, {"measurement": "Partial Mayo score, Lower quartile", "setting": "Week 8", "result": 2.0}, {"measurement": "Partial Mayo score, Maximum", "setting": "Week 8", "result": 8}, {"measurement": "Partial Mayo score, Mean", "setting": "Week 8", "result": "3.1±2.1 and 3.1"}, {"measurement": "Partial Mayo score, Median", "setting": "Week 8", "result": 3.0}, {"measurement": "Partial Mayo score, Minimum", "setting": "Week 8", "result": 0}, {"measurement": "Partial Mayo score, Upper quartile", "setting": "Week 8", "result": 4.0}, {"measurement": "Partial Mayo score, difference in mean between Example 1 and Comparative Example 1", "setting": "Week 8", "result": "−1.63"}, {"measurement": "Remission cases", "setting": "Week 8, 51 cases analyzed", "result": 12}, {"measurement": "Response cases", "setting": "Week 8, 51 cases analyzed", "result": 32}, {"measurement": "Remission rate", "setting": "Week 8, all subjects", "result": 23.5, "unit": "%"}, {"measurement": "Response rate", "setting": "Week 8, all subjects", "result": 62.7, "unit": "%"}, {"measurement": "Estimate of odds ratio of Example 1 to Comparative Example 1 (placebo group), response rate", "setting": "Week 8, logistic regression model", "result": 5.35}, {"measurement": "Remission rate", "setting": "body weight 50 kg or more and disease period less than 5 years (7/22 cases)", "result": 31.8, "unit": "%"}, {"measurement": "Response rate", "setting": "body weight 50 kg or more and disease period less than 5 years (16/22 cases)", "result": 72.7, "unit": "%"}, {"measurement": "Response rate", "setting": "body weight 50 kg or more but less than 60 kg (9/13 cases)", "result": 69.2, "unit": "%"}, {"measurement": "Response rate", "setting": "body weight less than 50 kg (5/9 cases)", "result": 55.6, "unit": "%"}, {"measurement": "Response rate", "setting": "disease for 1 year or more but less than 5 years (13/21 cases)", "result": 61.9, "unit": "%"}, {"measurement": "Response rate", "setting": "disease for 5 years or more (13/24 cases)", "result": 54.2, "unit": "%"}, {"measurement": "Response rate", "setting": "disease for less than 1 year (6/6 cases)", "result": 100.0, "unit": "%"}, {"measurement": "Response rate", "setting": "disease occurring for the first time (3/5 cases)", "result": 60.0, "unit": "%"}, {"measurement": "Response rate", "setting": "disease relapsing (29/46 cases)", "result": 63.0, "unit": "%"}, {"measurement": "Response rate", "setting": "females (13/20 cases)", "result": 65.0, "unit": "%"}, {"measurement": "Response rate", "setting": "left-sided colitis subjects (19/29 cases)", "result": 65.5, "unit": "%"}, {"measurement": "Response rate", "setting": "less than 1 month after remission induction therapy started (8/13 cases)", "result": 61.5, "unit": "%"}, {"measurement": "Response rate", "setting": "males (19/31 cases)", "result": 61.3, "unit": "%"}, {"measurement": "Response rate", "setting": "most active site at S or Rs and disease period less than 5 years (9/10 cases)", "result": 90.0, "unit": "%"}, {"measurement": "Response rate", "setting": "most active site of mucosal inflammation at Ra or Rb (15/28 cases)", "result": 53.6, "unit": "%"}, {"measurement": "Response rate", "setting": "most active site of mucosal inflammation at S or Rs (17/23 cases)", "result": 73.9, "unit": "%"}, {"measurement": "Response rate", "setting": "not receiving enema agent or suppository therapy in the active stage this time (21/34 cases)", "result": 61.8, "unit": "%"}, {"measurement": "Response rate", "setting": "pancolitis subjects (13/22 cases)", "result": 59.1, "unit": "%"}, {"measurement": "Response rate", "setting": "received enema agent or suppository therapy but terminated due to insufficient effect (11/17 cases)", "result": 64.7, "unit": "%"}, {"measurement": "Response rate", "setting": "relapsing subjects, disease period less than 5 years (16/22 cases)", "result": 72.7, "unit": "%"}, {"measurement": "Response rate", "setting": "relapsing subjects, stool frequency 6 times or less per day (25/32 cases)", "result": 78.1, "unit": "%"}, {"measurement": "Response rate", "setting": "stool frequency 6 times or less per day and disease period less than 5 years (16/20 cases)", "result": 80.0, "unit": "%"}, {"measurement": "Response rate", "setting": "stool frequency 6 times or less per day before administration (28/37 cases)", "result": 75.7, "unit": "%"}, {"measurement": "Response rate", "setting": "stool frequency 7 times or more per day before administration (4/14 cases)", "result": 28.6, "unit": "%"}, {"measurement": "Response rate", "setting": "subjects intolerant to a 5-ASA preparation (2/2 cases)", "result": 100.0, "unit": "%"}, {"measurement": "Response rate", "setting": "subjects intolerant to a corticosteroid preparation (0/1 case)", "result": 0.0, "unit": "%"}, {"measurement": "Response rate", "setting": "subjects on whom a 5-ASA preparation had an insufficient effect (28/46 cases)", "result": 60.9, "unit": "%"}, {"measurement": "Response rate", "setting": "subjects on whom a corticosteroid preparation had an insufficient effect (2/2 cases)", "result": 100.0, "unit": "%"}]}
